Experimental findings from patent US20150175655A1 (priority 2012, published 2015) are described below.

The target in one assay is T1, NS3 genotype 1b protease (Hepatitis C virus genotype 1b, UniProt Q9WMX2, E1202G).
T1 construct: Purified NS3 protease domain (amino acids 1-181) of the genotype 1b and 3a virus were generated as above; K3 hexahistidine tag (N); rTEV protease cleavage site (N); made in house; host or cells: E. coli BL21AI, pET28 vector p28-N6H-Tev-NS3(181)1b
The assay is described as follows: Ki determination, NS3 protease genotype 1b (fluorogenic depsipeptide substrate). Format: biochemical.
Details: not given
From the text:
The coding sequence of the genotype 1b (con-1 strain) HCV NS3 protease domain was PCR amplified from a plasmid encoding the I389luc-ubi-neo/NS3-3′/ET replicon (Reblikon, Mainz, Germany). The 5′-PCR primer was designed to encode an N-terminal K3 hexahistidine tag and to insert an in-frame recombinant Tobacco Etch virus (rTEV) protease cleavage site into the NS3 coding sequence. The resulting DNA fragment was cloned into the pET28 protein expression vector (Invitrogen, Carlsbad, Calif.) yielding the p28-N6H-Tev-NS3(181)1b.
BL21AI bacteria (Invitrogen, Carlsbad, Calif.) were transformed with genotype 1b or 3 NS3 expression vectors and used to inoculate a 20 L fermentation vessel (Sartorius BBI System Inc., Bethlehem, Pa.), containing 18 L of fresh 2YT medium supplemented with 50 μg/mL kanamycin. When cell densities reached an OD600 of 1, the temperature of the cultures was reduced from 37° C. to 28° C. and induction was immediately initiated by the addition of 30 μM ZnSO4, 14 mM L-arabinose and 1 mM Isopropyl β-D-thiogalactoside (IPTG) final concentrations. Cells were harvested by centrifugation four hours post-induction and were stored as frozen pellets at −80° C. prior to NS3 protein purification.
Cell pellets were thawed and resuspended at 10 mL/g cells in lysis buffer containing 50 mM tris pH 7.6, 300 mM NaCl, 0.1% 3-[(3-cholamidopropyl)dimethylammonio]-1-propanesulfonate (CHAPS), 5% glycerol, and 2 mM β-mercaptoethanol. Cell suspensions were then sonicated, filtered through cheesecloth, and passed three times through a microfluidizer at 18,000 pounds/in^2. The resulting lysates were centrifuged at 15500 rpm for 45 minutes and supernatants were loaded onto a HisTrap HP column (GE Lifesciences) pre-equilibrated with five volumes of Ni buffer A (50 mM tris pH 7.6, 300 mM NaCl, 0.1% CHAPS, 5% glycerol, 2 mM β-mercaptoethanol, 50 mM imidazole-HCl). Proteins were eluted with a 0-100% gradient of Ni buffer A plus 500 mM imidazole-HCl and fractions were collected and pooled. The HisTrap pool was diluted 1:10 with SP-A buffer (50 mM tris pH 7.0, 10% glycerol, 2 mM dithiothreitol (DTT)) and loaded onto a HiTrap SP-HP column (GE Lifesciences) equilibrated with SP-A buffer. NS3 protease was eluted with a 0-100% SP-B buffer (SP-A buffer plus 1 M NaCl) gradient. Concentrated pools of NS3-containing SP fractions were aliquoted, snap frozen in liquid nitrogen and stored at −80° C.
Purified NS3 protease domain (amino acids 1-181) of the genotype 1b and 3a virus were generated as above.
Reactions were run at room temperature in buffer consisting of 50 mM HEPES, 40% glycerol, 0.05% Triton X-100, 10 mM DTT, and 10% DMSO. The final assay solutions contained 50 pM NS3 genotype 1b protease or 200 pM genotype 3a protease, 20 μM NS4A peptide, and 4 μM substrate (genotype 1 b) or 2 μM substrate (genotype 3a). Inhibitor concentrations varied from 100 nM to 5 pM in 3-fold dilutions, and no-inhibitor controls were included.
Compound dilutions were made in DMSO at 20× final concentration. Reaction mixtures were prepared in 96-well assay plates. A solution of enzyme and NS4A peptide in assay buffer (25 μL volume with both reagents at 4× final concentration) was mixed with 45 μL assay buffer and 5 μL of either inhibitor or DMSO, and pre-incubated at room temperature for 1 hour. The reaction was started by addition of 25 μL substrate solution at 4× final concentration. Plates were mixed vigorously for 5-10 seconds and reactions were allowed to proceed for 90 minutes. fluorescence was measured every 30 s between 90 and 120 minutes reaction time using a Tecan InfiniTe M1000 or PerkinElmer Envision multimode plate reader with an excitation wavelength of 340 nm and an emission wavelength of 490 nm.
To determine the K, rates were plotted as a function of inhibitor concentration, and the data were fit with equation 1 (Morrison, J. F., Biochimica et Biophysica Acta 1969, 185, 269-286) to calculate Ki^app using GraphPad Prism 5.
In turn, `CC[C@@H]1[C@@H]2CN(C(=O)[C@H](C(C)(C)C)NC(=O)O[C@@H]3C[C@H]3CCCCC(F)(F)c3nc4ccc(OC)cc4nc3O2)[C@@H]1C(=O)N[C@]1(C(=O)NS(=O)(=O)C2(C)CC2)C[C@H]1C(F)F` [Example 17, (1aR,5S,8S,9S,10R,22aR)-5-tert-butyl-N-[(1R,2R)-2-(difluoromethyl)-1-{[(1-methylcyclopropyl)sulfonyl]carbamoyl}cyclopropyl]-9-ethyl-18,18-difluoro-14-methoxy-3,6-dioxo-1,1a,3,4,5,6,9,10,18,19,20,21,22,22a-tetradecahydro-8H-7,10-methanocyclopropa[18,19][1,10,3,6]dioxadiazacyclononadecino[11,12-b]quinoxaline-8-carboxamide] returned a Ki of 0.04 nM.
Still for that read-out and setting: then `CC[C@@H]1[C@@H]2CN(C(=O)[C@H](C(C)(C)C)NC(=O)O[C@@H]3C[C@H]3CCCC3CC3c3nc4ccc(OC)cc4nc3O2)[C@@H]1C(=O)N[C@]1(C(=O)NS(=O)(=O)C2(C)CC2)C[C@H]1C(F)F` (stereo partly drawn) [Example 36, (1aR,5S,8S,9S,10R,21aR)-5-tert-butyl-N-[(1R,2R)-2-(difluoromethyl)-1-{[(1-methylcyclopropyl)sulfonyl]carbamoyl}cyclopropyl]-9-ethyl-14-methoxy-3,6-dioxo-1a,3,4,5,6,9,10,17b,18,18a,19,20,21,21a-tetradecahydro-1H,8H-7,10-methanodicyclopropa[13,14:18,19][1,10,3,6]dioxadiazacyclononadecino[11,12-b]quinoxaline-8-carboxamide], with 0.1 nM; and `CC[C@@H]1[C@@H]2CN(C(=O)[C@H](C(C)(C)C)NC(=O)O[C@]3(C)CCC[C@H]3CCCCCc3nc4ccc(OC)cc4nc3O2)[C@@H]1C(=O)N[C@]1(C(=O)NS(=O)(=O)C2(C)CC2)C[C@H]1C(F)F` [Example 39, (3aR,7S,10S,11S,12R,24aR)-7-tert-butyl-N-[(1R,2R)-2-(difluoromethyl)-1-{[(1-methylcyclopropyl)sulfonyl]carbamoyl}cyclopropyl]-11-ethyl-16-methoxy-3a-methyl-5,8-dioxo-1,2,3,3a,5,6,7,8,11,12,20,21,22,23,24,24a-hexadecahydro-10H-9,12-methanocyclopenta[18,19][1,10,3,6]dioxadiazacyclononadecino[11,12-b]quinoxaline-10-carboxamide], with 0.08 nM; and `CC[C@]12C[C@@H]1CCCCCc1nc3ccc(OC)cc3nc1O[C@H]1CN(C(=O)[C@H](C(C)(C)C)NC(=O)O2)[C@H](C(=O)N[C@]2(C(=O)NS(=O)(=O)C3(C)CC3)C[C@H]2C(F)F)[C@@H]1C` [Example 42, (1aS,5S,8S,9S,10R,22aS)-5-tert-butyl-N-[(1R,2R)-2-(difluoromethyl)-1-{[(1-methylcyclopropyl)sulfonyl]carbamoyl}cyclopropyl]-1a-ethyl-14-methoxy-9-methyl-3,6-dioxo-1,1a,3,4,5,6,9,10,18,19,20,21,22,22a-tetradecahydro-8H-7,10-methanocyclopropa[18,19][1,10,3,6]dioxadiazacyclononadecino[11,12-b]quinoxaline-8-carboxamide], with 0.1 nM.
Still for that read-out and setting: to `CC[C@@]12C[C@H]1CCCCCc1nc3ccc(OC)cc3nc1O[C@H]1CN(C(=O)[C@H](C(C)(C)C)NC(=O)O2)[C@H](C(=O)N[C@]2(C(=O)NS(=O)(=O)C3(C)CC3)C[C@H]2C(F)F)[C@@H]1C` [Example 43, (1aR,5S,8S,9S,10R,22aR)-5-tert-butyl-N-[(1R,2R)-2-(difluoromethyl)-1-{[(1-methylcyclopropyl)sulfonyl]carbamoyl}cyclopropyl]-1a-ethyl-14-methoxy-9-methyl-3,6-dioxo-1,1a,3,4,5,6,9,10,18,19,20,21,22,22a-tetradecahydro-8H-7,10-methanocyclopropa[18,19][1,10,3,6]dioxadiazacyclononadecino[11,12-b]quinoxaline-8-carboxamide] belongs 0.06 nM; to `COc1ccc2nc3c(nc2c1)O[C@H]1CN(C(=O)[C@H](C(C)(C)C)NC(=O)O[C@@H]2C[C@H]2CCCCC3(F)F)[C@H](C(=O)N[C@]2(C(=O)NS(=O)(=O)C3(C)CC3)C[C@H]2C(F)F)[C@@H]1C` [Example 46, (1aR,5S,8S,9S,10R,22aR)-5-tert-butyl-N-[(1R,2R)-2-(difluoromethyl)-1-{[(1-methylcyclopropyl)sulfonyl]carbamoyl}cyclopropyl]-18,18-difluoro-14-methoxy-9-methyl-3,6-dioxo-1,1a,3,4,5,6,9,10,18,19,20,21,22,22a-tetradecahydro-8H-7,10-methanocyclopropa[18,19][1,10,3,6]dioxadiazacyclononadecino[11,12-b]quinoxaline-8-carboxamide], 0.03 nM.
The same measure, in the same setting: to `CCOc1ccc2nc3c(nc2c1)O[C@H]1CN(C(=O)[C@H](C(C)(C)C)NC(=O)O[C@@H]2C[C@H]2CCCCC3)[C@H](C(=O)N[C@]2(C(=O)NS(=O)(=O)C3(C)CC3)C[C@H]2C(F)F)[C@@H]1CC` [Example 69, (1aR,5S,8S,9S,10R,22aR)-5-tert-butyl-N-[(1R,2R)-2-(difluoromethyl)-1-{[(1-methylcyclopropyl)sulfonyl]carbamoyl}cyclopropyl]-14-ethoxy-9-ethyl-3,6-dioxo-1,1a,3,4,5,6,9,10,18,19,20,21,22,22a-tetradecahydro-8H-7,10-methanocyclopropa[18,19][1,10,3,6]dioxadiazacyclononadecino[11,12-b]quinoxaline-8-carboxamide] belongs 0.07 nM.

The same assay, now with this note: NS3 protease genotype 1b, 50 pM enzyme, 20 μM NS4A peptide, 4 μM substrate; read-out: Ki 1B.
Regarding `CC[C@@H]1[C@@H]2CN(C(=O)[C@H](C(C)(C)C)NC(=O)O[C@]3(C(F)(F)F)CCCC3CCCCCc3nc4ccc(OC)cc4nc3O2)[C@@H]1C(=O)N[C@]1(C(=O)NS(=O)(=O)C2(C)CC2)C[C@H]1C(F)F` (stereo partly drawn) [Example 9, (7S,10S,11S,12R)-7-tert-butyl-N-[(1R,2R)-2-(difluoromethyl)-1-{[(1-methylcyclopropyl)sulfonyl]carbamoyl}cyclopropyl]-11-ethyl-16-methoxy-5,8-dioxo-3aR-(trifluoromethyl)-1,2,3,3a,5,6,7,8,11,12,20,21,22,23,24,24a-hexadecahydro-10H-9,12-methanocyclopenta[18,19][1,10,3,6]dioxadiazacyclononadecino[11,12-b]quinoxaline-10-carboxamide], the inhibition constant (Ki) was 0.15 nM.
Still for that read-out and setting: then `CC[C@@H]1[C@@H]2CN(C(=O)[C@H](C(C)(C)C)NC(=O)O[C@@]3(C(F)(F)F)CCCC3CCCCCc3nc4ccc(OC)cc4nc3O2)[C@@H]1C(=O)N[C@]1(C(=O)NS(=O)(=O)C2(C)CC2)C[C@H]1C(F)F` (stereo partly drawn) [Example 10, (7S,10S,11S,12R)-7-tert-butyl-N-[(1R,2R)-2-(difluoromethyl)-1-{[(1-methylcyclopropyl)sulfonyl]carbamoyl}cyclopropyl]-11-ethyl-16-methoxy-5,8-dioxo-3aS-(trifluoromethyl)-1,2,3,3a,5,6,7,8,11,12,20,21,22,23,24,24a-hexadecahydro-10H-9,12-methanocyclopenta[18,19][1,10,3,6]dioxadiazacyclononadecino[11,12-b]quinoxaline-10-carboxamide], with 0.16 nM.
